Where a name gives a salt, the structure may show the parent alone. Read-outs that look alike come from different tables or passages of the source.
Experiments:
Assay type in all cases: cell-based
[1] = tested on: Cryptococcus neoformans spore germination; experiment: High throughput nanoluciferase screen of spore germination (L1300 Selleck FDA-Approved Drug Library)
Text: (§1) To identify inhibitors of Cryptococcus neoformans spore germination, a high throughput screen was developed that utilizes a nanoluciferase construct to monitor whether spores germinate in the presence of inhibitor. Briefly a protein luciferase construct was created resulting in a low luciferase signal for non-germinated spores and a high signal from germinated and replicating cells. The screen was coupled with OD600 readings to monitor the ability of compounds to inhibit yeast replication. The examples focused on FDA-approved drugs, as these drugs have the potential of being repurposed into antifungal therapeutics. To determine whether any FDA-approved drugs were able to inhibit Cryptococcus neoformans spore germination and yeast replication, the aforementioned high throughput screen was performed on the L1300 Selleck FDA-Approved Drug Library containing an array of 1108 compounds. This library of compounds is available commercially from Selleck Chemicals, 14408 W Sylvanfield Drive, Houston, Tex. 77014, USA.
(§2) The screening was successful at identifying known antifungal drugs as inhibitors of yeast replication as indicated by an OD600 signal of less than 75% of the negative control (Table 2). For the purpose of these examples, antifungal drugs were defined as any FDA-approved drug used in the treatment of fungal infections. Of these 23 known antifungal drugs, only six (6) were identified as inhibitors of spore germination, indicated by a luciferase signal of less than 30% of the negative control.

[2] = tested on: Cryptococcus neoformans yeast replication; conditions: signal relative to negative control
Text: as §1, §2

[3] = tested on: Cryptococcus neoformans (JEC21); experiment: MIC/MFC experiments (EUCAST based), JEC21; conditions: for Ability to inhibit yeast growth / replication in MIC and MFC testing: yeast strain not given, data not shown for non-inhibitors
Experimental: (§3) All minimum inhibitory concentration (MIC) experiments were based on EUCAST methodology. […] After 6-hour incubation, yeast cells were washed in 1×PBS and quantified using a hemocytometer. […] Cryptococcus neoformans cells were incubated for 2 days at 30° C. while Candida albicans strains were incubated for 2 days at 35° C. OD600 readings were used to assess the MIC values for each drug. To determine minimum fungicidal concentrations (MFC) values, 3 μL per well were plated on YPD and allowed to grow for 2 days.

[4] = tested on: Cryptococcus neoformans (H99); experiment: MIC/MFC experiments (EUCAST based), H99; conditions: Cryptococcus neoformans, 48 h
Experimental: as §3

[5] = tested on: Candida albicans (SC5314); experiment: MIC/MFC experiments (EUCAST based), Candida albicans; conditions: SC5314, 48 h
Experimental: as §3

[6] = Table 2, antifungal drugs, signal relative to negative control, less than 30% = inhibitor of germination
[7] = Table 2, antifungal drugs, less than 75% = inhibitor of yeast replication
[8] = Table 3, other FDA-approved drugs
[9] = Table 3, other FDA-approved drugs, signal relative to negative control

Compound | Germination Percent Luciferase Signal [1, 6] | Replication Percent OD600 [2, 7] | Replication Percent OD600 [2, 8] | further results
CCC(C)(C)c1ccc(CC(C)CN2C[C@@H](C)O[C@@H](C)C2)cc1 (stereo partly drawn) [Amorolfine HCl] | 88.6% | 41.4% | – | –
C[C@@H]1[C@H](O)[C@@H](C)/C=C/C=C/C=C/C=C/C=C/C=C/C=C/[C@H](O[C@@H]2O[C@H](C)[C@@H](O)[C@H](N)[C@@H]2O)C[C@@H]2O[C@](O)(C[C@@H](O)C[C@@H](O)[C@H](O)CC[C@@H](O)C[C@@H](O)CC(=O)O[C@H]1C)C[C@H](O)[C@H]2C(=O)O [Amphotericin B] | 84.6% | 45.7% | – | –
CC(C)(C)CC(C)(C)c1ccc(OCCOCC[N+](C)(C)Cc2ccccc2)cc1 [Benzethonium chloride] | – | – | 30.3% | Germination Percent Luciferase Signal [1]: 6.9%
OC(CCN1CCCCC1)(c1ccccc1)C1CC2C=CC1C2 (stereo not drawn) [Biperiden HCl] | – | – | 56.6% | Germination Percent Luciferase Signal [1, 9]: 23.4%; Ability to inhibit yeast growth / replication in MIC and MFC testing [3]: unable to inhibit yeast growth
CN(Cc1ccc(C(C)(C)C)cc1)Cc1cccc2ccccc12 [Butenafine HCl] | 57.5% | 32.9% | – | –
Clc1ccc(CCC(Cn2ccnc2)Sc2c(Cl)cccc2Cl)cc1 (stereo not drawn) [Butoconazole nitrate] | 41.5% | 33.4% | – | –
CCCCCCCCCCCCCCCC[N+](C)(C)C.[Br-] [Cetrimonium bromide] | – | – | 63.2% | Germination Percent Luciferase Signal [1, 9]: 4.4%
CCCCCCCCCCCCCCCC[n+]1ccccc1 [Cetylpyridinium chloride] | – | – | 31.9% | Germination Percent Luciferase Signal [1]: 4.2%; MFC ([3]; Cryptococcus neoformans, 48 h): < 0.78 µg/mL; MFC [4]: < 0.78 µg/mL; MFC [5]: 3.13 µg/mL
CC(C)(C)C(=O)C(Oc1ccc(Cl)cc1)n1ccnc1 (stereo not drawn) [Climbazole] | 151.5% | 38.9% | – | –
Clc1ccccc1C(c1ccccc1)(c1ccccc1)n1ccnc1 [Clotrimazole] | 65.9% | 34.1% | – | –
Cc1cc(N)c2ccccc2[n+]1CCCCCCCCCC[n+]1c(C)cc(N)c2ccccc21 [Dequalinium chloride] | – | – | 47.9% | Germination Percent Luciferase Signal [1, 9]: 22.3%
CCCCCCCCCCCC[N+](C)(C)CCOc1ccccc1 [Domiphen bromide] | – | – | 63.9% | Germination Percent Luciferase Signal [1, 9]: 4.4%
C=C1/C(=C\C=C2/CCC[C@]3(C)[C@@H]([C@H](C)/C=C/[C@H](C)C(C)C)CC[C@@H]23)C[C@@H](O)C[C@@H]1O [Doxercalciferol] | – | – | 55.2% | Germination Percent Luciferase Signal [1, 9]: 17.1%
CO[C@H]1C[C@@H]2CC[C@@H](C)[C@@](O)(O2)C(=O)C(=O)N2CCCC[C@H]2C(=O)O[C@H]([C@H](C)C[C@@H]2CC[C@@H](OCCO)[C@H](OC)C2)CC(=O)[C@H](C)/C=C(\C)[C@@H](O)[C@@H](OC)C(=O)[C@H](C)C[C@H](C)/C=C/C=C/C=C/1C [Everolimus] | – | – | 67.7% | Germination Percent Luciferase Signal [1, 9]: 15.7%
O=C1[C@H](CC[C@H](O)c2ccc(F)cc2)[C@@H](c2ccc(O)cc2)N1c1ccc(F)cc1 [Ezetimibe] | – | – | 51.3% | Germination Percent Luciferase Signal [1, 9]: 22.0%; Ability to inhibit yeast growth / replication in MIC and MFC testing [3]: unable to inhibit yeast growth
Clc1ccc(C(Cn2ccnc2)OCc2ccc(Sc3ccccc3)cc2)c(Cl)c1 (stereo not drawn) [Fenticonazole nitrate] | 49.1% | 36.4% | – | –

Compound | Germination Percent Luciferase Signal [1, 6] | Replication Percent OD600 [2, 7] | Replication Percent OD600 [2, 8] | further results
OC(Cn1cncn1)(Cn1cncn1)c1ccc(F)cc1F [Fluconazole] | 84.0% | 72.2% | – | –
Clc1ccc(C(Cn2ccnc2)OCc2c(Cl)cccc2Cl)c(Cl)c1 (stereo not drawn) [Isoconazole nitrate] | 16.8% | 37.0% | – | –
CCC(C)n1ncn(-c2ccc(N3CCN(c4ccc(OCC5COC(Cn6cncn6)(c6ccc(Cl)cc6Cl)O5)cc4)CC3)cc2)c1=O (stereo not drawn) [Itraconazole] | 159.6% | 58.9% | – | –
CC(=O)N1CCN(c2ccc(OCC3COC(Cn4ccnc4)(c4ccc(Cl)cc4Cl)O3)cc2)CC1 (stereo not drawn) [Ketoconazole] | 154.8% | 35.4% | – | –
COc1cccc(N(C)C(=S)Oc2ccc3c(c2)CCCC3)n1 [Liranaftate] | 64.8% | 37.6% | – | –
Clc1ccc(COC(Cn2ccnc2)c2ccc(Cl)cc2Cl)c(Cl)c1 (stereo not drawn) [Miconazole nitrate] | 25.5% | 38.2% | – | –
CN(C/C=C/c1ccccc1)Cc1cccc2ccccc12 [Naftifine HCl] | 55.5% | 34.5% | – | –
C=CC(=O)N1CCC[C@@H](n2nc(-c3ccc(Oc4ccccc4)cc3)c3c(N)ncnc32)C1 [PCl-32765] | – | – | 70.3% | Germination Percent Luciferase Signal [1, 9]: 10.6%
N=C(N)c1ccc(OCCCCCOc2ccc(C(=N)N)cc2)cc1 [Pentamidine HCl] | 6.5% | 38.3% | – | –
CC[C@@H]([C@H](C)O)n1ncn(-c2ccc(N3CCN(c4ccc(OC[C@@H]5CO[C@@](Cn6cncn6)(c6ccc(F)cc6F)C5)cc4)CC3)cc2)c1=O [Posaconazole] | 167.2% | 46.7% | – | –
CO[C@H]1C[C@@H]2CC[C@@H](C)[C@@](O)(O2)C(=O)C(=O)N2CCCC[C@H]2C(=O)O[C@H]([C@H](C)C[C@@H]2CC[C@@H](O)[C@H](OC)C2)CC(=O)[C@H](C)/C=C(\C)[C@@H](O)[C@@H](OC)C(=O)[C@H](C)C[C@H](C)/C=C/C=C/C=C/1C [Rapamycin] | – | – | 61.8% | Germination Percent Luciferase Signal [1, 9]: 18.5%
Clc1ccc(CSC(Cn2ccnc2)c2ccc(Cl)cc2Cl)cc1 (stereo not drawn) [Sulconazole nitrate] | 57.8% | 40.9% | – | –
Clc1ccc(C(Cn2ccnc2)OCc2ccsc2Cl)c(Cl)c1 (stereo not drawn) [Tioconazoie] | 25.0% | 36.8% | – | –
Cc1cccc(N(C)C(=S)Oc2ccc3ccccc3c2)c1 [Tolnaftate] | 60.2% | 47.3% | – | –
C[C@@H](c1ncncc1F)[C@](O)(Cn1cncn1)c1ccc(F)cc1F [Voriconazole] | 173.9% | 35.8% | – | –
Caspofungin acetate | 89.7% | 48.5% | – | –

Reference: patent publication US11981953B2, “Method to screen compounds for antifungal activity and pharmaceutical compositions and methods to treat fungal diseases by inhibiting spore germination” (WISCONSIN ALUMNI RESEARCH FOUNDATION, priority 2018, dated 2024)
